Data as given in PMC9822155, “Synthesis and Antiproliferative Activity against Cancer Cells of Indole-Aryl-Amide Derivatives” (Molecules, 2022).

Assays:
δ-OR = biological target: T1, δ-OR (Homo sapiens, UniProt P41143); test: Radioligand binding assay, δ-OR ([3H]deltorphin-2 displacement); conditions: [3H]deltorphin-2, membranes of CHO cells with human recombinant OR; ± SEM (n ≥ 3)
T1 construct: purchased PerkinElmer (Krakow, Poland); host or cells: CHO cells (membranes)
Protocol: (§1) In order to evaluate the affinity of the compounds for μ-, δ-, κ-ORs, radioligand binding assays were performed. Displacement of radioligands, [^3H]DAMGO (μ-OR selective), [^3H]deltorphin-2 (δ-OR selective), and [^3H]U-69593 (κ-OR selective) by the synthetic analogs was investigated in the commercial membranes of CHO cells transfected with human recombinant ORs. […] Due to the modest receptor affinities, the functional activity of the compounds was not investigated.
(§2) Opioid radioligands, [^3H]DAMGO, [^3H]deltorphin-2 and [^3H]U-69593, and human recombinant opioid receptors came from PerkinElmer (Krakow, Poland). GF/B glass fiber strips were purchased from Whatman (Brentford, UK).
(§3) To determine the affinity of peptide analogs at the respective receptors, competition binding experiments were performed. Commercial membranes of CHO cells stably expressing human opioid receptors and the competing radioligands, [^3H]DAMGO, [^3H]deltorphin-2, and [^3H]U-69593 for μ-OR, δ-OR, and κ-OR, respectively, were used. Membranes were incubated in 0.5 mL volume of 50 mM Tris/HCl (pH = 7.4), 0.5% bovine serum albumin (BSA), with a number of peptidase inhibitors (bacitracin, bestatin, captopril) and various concentrations of radioligands for 2 h at 25 °C. Non-specific binding was assessed in the presence of […]. Three independent experiments for each assay were carried out in duplicate. The data were analyzed by a nonlinear least square regression analysis computer program Graph Pad PRISM 6.0 (Graph Pad Software Inc., San Diego, CA, USA). The IC50 values were determined from the logarithmic concentration-displacement curves, and the values of the inhibitory constants (Ki) were calculated according to the equation of Cheng and Prusoff.

κ-OR = biological target: T2, κ-OR (Homo sapiens, UniProt P41145); test: Radioligand binding assay, κ-OR ([3H]U-69593 displacement); conditions: [3H]U-69593, membranes of CHO cells with human recombinant OR; ± SEM (n ≥ 3)
T2 construct: purchased PerkinElmer (Krakow, Poland); host or cells: CHO cells (membranes)
T2 sequence (P41145 whole entry): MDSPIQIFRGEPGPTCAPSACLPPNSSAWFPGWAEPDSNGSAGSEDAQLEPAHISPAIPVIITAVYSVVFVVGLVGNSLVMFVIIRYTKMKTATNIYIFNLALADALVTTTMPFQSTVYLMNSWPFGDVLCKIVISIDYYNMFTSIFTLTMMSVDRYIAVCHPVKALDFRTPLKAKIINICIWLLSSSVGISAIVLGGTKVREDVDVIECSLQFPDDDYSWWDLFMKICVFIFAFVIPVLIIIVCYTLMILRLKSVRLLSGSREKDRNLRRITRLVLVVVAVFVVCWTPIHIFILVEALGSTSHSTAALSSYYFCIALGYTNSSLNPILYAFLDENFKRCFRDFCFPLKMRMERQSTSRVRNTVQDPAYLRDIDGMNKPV
Protocol: as §1, §2, §3

[1] = system: 3T3 (mouse embryonic fibroblast) cells; test: MTT viability assay, 3T3; assay type: cell-based; conditions: 24 h, normal cells
Text: (§4) To investigate whether the compounds have an antitumor activity, we performed in vitro viability assays against a panel of cancer cell lines: HT29 (human colorectal adenocarcinoma), HeLa (human cervical carcinoma), IGROV-1 (human ovarian carcinoma), MCF7 (human breast cancer), PC-3 (human prostate adenocarcinoma), and Jurkat J6 (human […]). The I407 (human embryonic intestinal) and 3T3 (mouse embryonic fibroblast) cells were used as controls. The growth inhibitory concentration was determined by incubating the cells with increasing concentrations (0.01–500 μM) of the compounds for 24 h. Data obtained from cell growth assays were elaborated to assess the concentration of cell viability (IC50) and selectivity indices (SI), and the results are shown in Table 2 and Table 3, respectively.
(§5) HT29 human colorectal adenocarcinoma cells, HeLa human cervix adenocarcinoma cells, MCF7 human breast adenocarcinoma cells, PC-3 human prostate adenocarcinoma cells, J6 Jurkat Clone E6-1 acute T cell leukemia, the healthy I407 human intestine cells, and mouse embryonic fibroblast 3T3 fibroblasts as controls cell lines were purchased from American Type Culture Collection (ATCC, Manassas, VA). The human ovarian cancer cell line IGROV1 has been kindly provided by Prof. Colnaghi (Istituto Nazionale Tumori (IRCCS) (Milano, Italy). Cells were cultured in RPMI 1640 medium (Labtek Eurobio, Milan, Italy), supplemented with 10% FCS (Euroclone, Milano, Italy) and 2 mM L-glutamine (Sigma-Aldrich, Milano, Italy), at 37 °C, and a 5% CO2 atmosphere. The compounds were dissolved in DMSO in a 30–40 mM stock solution. In cell treatments, the final DMSO concentration never exceeded 0.1%.
(§6) Cells were seeded at 1.5 × 10^4 cells/well in a 96-well culture plastic plate (Sarsted, Milan, Italy), and after 24 h of growth were exposed to increasing concentrations of each distinct compound (from 0.010 μM to 500 μM) solubilized in RPMI 1640 medium. MTT assay was performed according to the literature. In brief, after 24 h of treatment, the culture medium was replaced with 0.1 mL of 3-(4,5-dimethylthiazolyl-2)-2,5-diphenyltetrazolium bromide (MTT, Sigma-Aldrich, Milano, Italy) dissolved in PBS at the concentration of 0.2 mg/mL, and samples were incubated for 2 h at 37 °C. The absorbance at 570 nm was measured using a multiwell plate reader (Tecan, Männemorf, Switzerland), and data were analyzed by Prism GraphPad software, and expressed as IC50 μM.

[2] = system: I407 (human embryonic intestinal) cells; test: MTT viability assay, I407; assay type: cell-based; conditions: Homo sapiens, 24 h, normal cells
Text: as §4, §5, §6

[3] = system: HT29 (human colorectal adenocarcinoma) cells; test: MTT viability assay, HT29; assay type: cell-based; conditions: for IC50: Homo sapiens, HT-29, MTT, 24 h; for Selectivity Index IC503T3/ IC50HT29: 3T3 normal cells as reference
Text: as §4, §5, §6

[4] = system: HeLa (human cervical carcinoma) cells; test: MTT viability assay, HeLa; assay type: cell-based; conditions: for IC50: Homo sapiens, MTT, 24 h; for Selectivity Index IC503T3/ IC50HeLa: 3T3 normal cells as reference; for Selectivity Index IC50I407/ IC50HeLa: I407 normal cells as reference
Text: as §4, §5, §6

[5] = system: IGROV-1 (human ovarian carcinoma) cells; test: MTT viability assay, IGROV-1; assay type: cell-based; conditions: 24 h
Text: as §4, §5, §6

[6] = system: MCF7 (human breast cancer) cells; test: MTT viability assay, MCF7; assay type: cell-based; conditions: for IC50: Homo sapiens, MCF7, MTT, 24 h
Text: as §4, §5, §6

[7] = system: PC-3 (human prostate adenocarcinoma) cells; test: MTT viability assay, PC3; assay type: cell-based; conditions: for IC50: Homo sapiens, MTT, 24 h
Text: as §4, §5, §6

Jurkat J6 cells = test: MTT viability assay, Jurkat J6; assay type: cell-based, human; conditions: Homo sapiens, Jurkat; MTT, 24 h
Text: as §4, §5, §6

μ-OR = biological target: T3, μ-OR (Homo sapiens, UniProt P35372); test: Radioligand binding assay, μ-OR ([3H]DAMGO displacement); conditions: membranes of CHO cells with human recombinant OR, ± SEM (n ≥ 3)
T3 construct: purchased PerkinElmer (Krakow, Poland); host or cells: CHO cells (membranes)
T3 sequence (P35372 whole entry): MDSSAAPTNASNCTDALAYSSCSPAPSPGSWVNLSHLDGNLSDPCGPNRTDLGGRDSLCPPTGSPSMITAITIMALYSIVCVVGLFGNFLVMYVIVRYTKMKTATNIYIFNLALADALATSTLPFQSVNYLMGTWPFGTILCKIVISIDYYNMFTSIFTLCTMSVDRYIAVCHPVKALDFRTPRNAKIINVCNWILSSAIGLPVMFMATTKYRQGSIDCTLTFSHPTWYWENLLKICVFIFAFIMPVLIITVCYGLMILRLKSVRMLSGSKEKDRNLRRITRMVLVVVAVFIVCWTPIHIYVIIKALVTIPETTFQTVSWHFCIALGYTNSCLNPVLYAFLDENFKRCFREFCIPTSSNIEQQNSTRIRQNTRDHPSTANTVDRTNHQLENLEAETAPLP
Protocol: as §1, §2, §3

T1 sequence (P41143 whole entry): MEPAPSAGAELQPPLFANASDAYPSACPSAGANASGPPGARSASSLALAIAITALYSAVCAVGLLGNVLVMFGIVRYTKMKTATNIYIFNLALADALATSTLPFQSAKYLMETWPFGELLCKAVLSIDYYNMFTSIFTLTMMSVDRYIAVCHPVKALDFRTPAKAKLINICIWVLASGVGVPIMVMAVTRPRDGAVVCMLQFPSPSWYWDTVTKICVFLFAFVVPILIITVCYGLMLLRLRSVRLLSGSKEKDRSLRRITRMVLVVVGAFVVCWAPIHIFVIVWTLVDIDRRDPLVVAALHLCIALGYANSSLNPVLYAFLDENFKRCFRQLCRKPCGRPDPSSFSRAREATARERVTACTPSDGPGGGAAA

Ki (δ-OR)	Ki (κ-OR)	Ki (µM) κ-OR (κ-OR)	IC50 [3]	IC50 [4]	IC50 [5]	IC50 [6]	IC50 [7]	IC50 (Jurkat J6 cells)	Ki (μ-OR)	SMILES	IC50 [1]	IC50 [2]	Selectivity Index IC503T3/ IC50PC3 ([7]; 3T3 normal cells as reference)	Selectivity Index IC50I407/ IC50MCF7 ([6]; I407 normal cells as reference)	Selectivity Index IC50I407/ IC50PC3 ([7]; I407 normal cells as reference)	Selectivity Index IC503T3/ IC50HT29 [3]	Selectivity Index IC50I407/ IC50HT29 ([3]; I407 normal cells as reference)	Selectivity Index IC503T3/ IC50HeLa [4]	Selectivity Index IC50I407/ IC50HeLa [4]	Selectivity Index IC503T3/ IC50MCF7 ([6]; 3T3 normal cells as reference)
115 ± 45 µM	3.8 ± 0.3 µM	low μM range	> 500 µM	> 500 µM	> 500 µM	0.49 ± 0.01 µM	> 500 µM	> 500 µM	–	Nc1ccc(CN(CCCO)C(=O)Cc2c[nH]c3ccccc23)cc1 [Compound 7]	> 500 µM	> 500 µM	–	–	–	–	–	–	–	–
85.5 ± 2 µM	26.7 ± 9.5 µM	–	> 500 µM	> 500 µM	> 500 µM	> 500 µM	166 ± 0.03 µM	> 500 µM	451 ± 11 µM	NC(=O)CN(Cc1ccc(N)cc1)C(=O)Cc1c[nH]c2ccccc12 [Compound 6]	0.11 ± 0.03 µM	> 500 µM	0.001	–	–	–	–	–	–	–
9 ± 0.6 µM	2.5 ± 0.4 µM	low μM range	> 500 µM	> 500 µM	> 500 µM	0.81 ± 0.03 µM	2.13 ± 0.04 µM	> 500 µM	54.6 ± 3.5 µM	Nc1ccc(CC(=O)N(CCc2c[nH]c3ccccc23)Cc2ccccc2)cc1 [Compound 2]	> 500 µM	0.35 ± 0.03 µM	–	0.432	0.164	–	–	–	–	–
37.1 ± 1.4 µM	5 ± 2.9 µM	–	0.31 ± 0.06 µM	25 ± 0.06 µM	> 500 µM	> 500 µM	> 500 µM	> 500 µM	–	O=C(CCc1ccc(O)cc1)N(CCc1c[nH]c2ccccc12)Cc1ccccc1 [Compound 1]	164.3 ± 0.01 µM	63 ± 0.06 µM	–	–	–	530	203.23	6.572	2.52	–
6.5 ± 0.8 µM	7.8 ± 0.2 µM	–	> 500 µM	5.64 ± 0.01 µM	> 500 µM	> 500 µM	> 500 µM	> 500 µM	10.7 ± 1.7 µM	Nc1ccc(CC(=O)Nc2ccc(CC(=O)N(CCc3c[nH]c4ccccc34)Cc3ccccc3)cc2)cc1 [Compound 3]	0.5 ± 0.04 µM	75 ± 0.07 µM	–	–	–	–	–	0.089	13.29	–
–	7.4 ± 1.3 µM	–	0.96 ± 0.04 µM	1.87 ± 0.02 µM	> 500 µM	0.84 ± 0.03 µM	> 500 µM	> 500 µM	–	Nc1ccc(CNC(=O)Cc2c[nH]c3ccccc23)cc1 [Compound 4]	0.63 ± 0.02 µM	> 500 µM	–	–	–	0.656	–	0.337	–	0.75
